Source: ChEMBL document CHEMBL1130243, “Potent and selective inhibition of neuronal nitric oxide synthase by N omega-propyl-L-arginine” (J Med Chem, 1997)

What was measured:
[1] = biological target: T1, Nitric oxide synthase, inducible (Mus musculus, UniProt P29477); experiment: Compound was tested for binding affinity against recombinant inducible nitric oxide synthase (iNOS) from mouse
T1 sequence (P29477 whole entry): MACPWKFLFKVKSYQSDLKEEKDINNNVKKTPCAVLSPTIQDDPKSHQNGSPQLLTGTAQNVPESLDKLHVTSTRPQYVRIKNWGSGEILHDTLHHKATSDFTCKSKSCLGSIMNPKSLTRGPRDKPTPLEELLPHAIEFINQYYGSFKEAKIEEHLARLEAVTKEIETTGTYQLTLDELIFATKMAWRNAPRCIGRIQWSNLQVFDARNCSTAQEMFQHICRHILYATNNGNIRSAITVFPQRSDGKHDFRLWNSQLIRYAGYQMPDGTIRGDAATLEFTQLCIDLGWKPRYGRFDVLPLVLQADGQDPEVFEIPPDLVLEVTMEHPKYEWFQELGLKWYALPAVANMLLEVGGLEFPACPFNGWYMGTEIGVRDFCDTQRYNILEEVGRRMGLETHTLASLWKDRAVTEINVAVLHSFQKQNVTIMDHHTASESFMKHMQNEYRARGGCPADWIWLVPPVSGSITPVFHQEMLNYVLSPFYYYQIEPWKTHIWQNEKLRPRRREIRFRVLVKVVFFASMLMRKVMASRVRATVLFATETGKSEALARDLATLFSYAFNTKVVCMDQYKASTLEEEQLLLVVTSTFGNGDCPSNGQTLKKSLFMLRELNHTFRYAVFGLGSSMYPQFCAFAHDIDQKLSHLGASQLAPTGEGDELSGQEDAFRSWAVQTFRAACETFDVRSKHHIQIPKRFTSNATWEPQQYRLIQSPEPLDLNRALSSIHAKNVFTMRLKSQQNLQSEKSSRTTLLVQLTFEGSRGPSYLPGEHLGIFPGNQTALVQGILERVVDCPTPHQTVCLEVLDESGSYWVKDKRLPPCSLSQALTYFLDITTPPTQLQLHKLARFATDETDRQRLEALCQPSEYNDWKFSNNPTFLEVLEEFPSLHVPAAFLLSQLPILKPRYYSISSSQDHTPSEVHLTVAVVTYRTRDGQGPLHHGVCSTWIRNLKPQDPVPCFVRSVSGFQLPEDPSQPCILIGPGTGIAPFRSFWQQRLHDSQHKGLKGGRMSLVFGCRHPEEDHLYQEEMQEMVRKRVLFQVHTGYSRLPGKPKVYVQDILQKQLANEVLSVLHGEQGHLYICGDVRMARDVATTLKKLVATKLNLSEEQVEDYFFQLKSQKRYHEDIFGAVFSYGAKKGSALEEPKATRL

Nitric oxide synthase 3 = biological target: T2, Nitric oxide synthase 3 (Bos taurus, UniProt P29473); experiment: Compound was tested for binding affinity against Endothelial nitric oxide synthase
T2 sequence (P29473 whole entry): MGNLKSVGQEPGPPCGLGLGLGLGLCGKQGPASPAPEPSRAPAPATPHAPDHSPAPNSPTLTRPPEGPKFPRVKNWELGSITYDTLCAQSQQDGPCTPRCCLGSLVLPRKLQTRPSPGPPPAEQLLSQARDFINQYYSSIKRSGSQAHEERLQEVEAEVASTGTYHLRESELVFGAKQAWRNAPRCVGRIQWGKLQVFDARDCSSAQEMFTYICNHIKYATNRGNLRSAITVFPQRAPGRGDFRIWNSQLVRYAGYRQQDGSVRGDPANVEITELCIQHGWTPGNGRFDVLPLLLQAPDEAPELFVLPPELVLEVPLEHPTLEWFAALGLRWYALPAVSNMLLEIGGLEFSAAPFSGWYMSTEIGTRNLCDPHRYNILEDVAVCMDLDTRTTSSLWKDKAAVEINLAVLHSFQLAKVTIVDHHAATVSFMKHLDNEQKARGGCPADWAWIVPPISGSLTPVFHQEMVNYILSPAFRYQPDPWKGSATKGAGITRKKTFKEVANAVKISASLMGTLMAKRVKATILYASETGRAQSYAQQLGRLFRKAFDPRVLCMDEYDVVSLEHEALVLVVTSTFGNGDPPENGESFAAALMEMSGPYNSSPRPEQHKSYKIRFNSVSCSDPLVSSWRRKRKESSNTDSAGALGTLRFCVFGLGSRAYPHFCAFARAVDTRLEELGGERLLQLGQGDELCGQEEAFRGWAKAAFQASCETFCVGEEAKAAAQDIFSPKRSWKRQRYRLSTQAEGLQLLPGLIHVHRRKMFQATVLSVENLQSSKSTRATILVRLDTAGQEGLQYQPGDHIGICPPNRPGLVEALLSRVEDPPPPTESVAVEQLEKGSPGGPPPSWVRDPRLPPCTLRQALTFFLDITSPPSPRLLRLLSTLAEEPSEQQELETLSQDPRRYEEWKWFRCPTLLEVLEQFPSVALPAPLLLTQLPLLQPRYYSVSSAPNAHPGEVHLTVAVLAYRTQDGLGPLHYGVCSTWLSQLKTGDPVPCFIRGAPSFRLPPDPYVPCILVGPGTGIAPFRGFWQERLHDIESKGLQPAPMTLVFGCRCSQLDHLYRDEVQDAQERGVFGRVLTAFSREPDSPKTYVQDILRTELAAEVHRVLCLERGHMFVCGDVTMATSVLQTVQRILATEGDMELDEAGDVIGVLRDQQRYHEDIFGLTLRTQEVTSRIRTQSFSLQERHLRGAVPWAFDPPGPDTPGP

Ki [1]	Ki (Nitric oxide synthase 3)	SMILES
0.62 µM		C#CC/N=C(/N)NCCCC(N)C(=O)O (stereo unspecified)
2.1 µM	3.1 µM	C=CCNC(=N)NCCCC(N)C(C)=O (stereo unspecified)
	8.5 µM	CCC/N=C(/N)NCCCC(N)C(=O)O (stereo unspecified)

SMILES	Ki [1]	Ki (Nitric oxide synthase 3)
CC/N=C(/N)NCCCC(N)C(=O)O (stereo unspecified)	6.1 µM	9.5 µM
